We go through six compounds from patent US20220324835A1 (Nurix Therapeutics, Inc., priority 2018, published 2022).

For experiment [1], the target named is T1, Cbl-b (Homo sapiens, UniProt Q13191). Put plainly: Cbl-b activity assay (Cbl-b inhibition assay), TR-FRET of Cbl-b interaction with UbcH5B-Ub. The experiment is classed as biochemical. Conditions: assay buffer with 100 mM NaCl, 60 nM Src kinase; read-out: Cbl-b activity IC50. The essentials:
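TR-FRET readout of Cbl-b binding to Bodipy-fluorescein N-terminally labeled Ub conjugated to UbcH5B C85K, measured with compound present. After compound incubation, 60 nM Src kinase with 1 mM ATP and 5 mM MgCl2 (final) was added for 1.5 h, then a further 1 h incubation; asterisked values used 50 mM NaCl buffer and 30 nM Src.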

Experiment [2] concerns the target T1, Cbl-b. Put plainly: Cbl-b inhibition assay (Cbl-b activity assay, FRET, Biological Example 1; 100 mM NaCl, 60 nM Src kinase). Type of experiment: biochemical. To be noted: upper bound stated in text lists; read-out: IC50 values in the Cbl-b inhibition assay of Biological Example 1. An outline of the steps:
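Inhibition is read as loss of FRET signal. The signal arises when Src-phosphorylated, N-terminal biotinylated Avi-Cbl-b (captured by streptavidin-terbium) binds UbcH5B carrying covalently linked Bodipy-Fluorescein-tagged ubiquitin.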

In experiment [3] the target is Cbl-b (residues 36-427) (Homo sapiens, UniProt Q13191). In words: Cbl-b binding assay (SPR, Biacore T200). Conditions: 20° C., 1:1 binding model. The essentials: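 Affinities derived from global 1:1 steady-state or kinetic fits of double-referenced, solvent-corrected SPR data, 20 °C, NeutrAvidin-capture chip. Compound series (top 100 or 50 μM, 8–10 points) injected 50 s, 90–180 s dissociation. Asterisked values used 50 mM instead of 100 mM NaCl and 30 nM Src kinase.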
Cbl-b (residues 36-427), sequence (Q13191 36-427): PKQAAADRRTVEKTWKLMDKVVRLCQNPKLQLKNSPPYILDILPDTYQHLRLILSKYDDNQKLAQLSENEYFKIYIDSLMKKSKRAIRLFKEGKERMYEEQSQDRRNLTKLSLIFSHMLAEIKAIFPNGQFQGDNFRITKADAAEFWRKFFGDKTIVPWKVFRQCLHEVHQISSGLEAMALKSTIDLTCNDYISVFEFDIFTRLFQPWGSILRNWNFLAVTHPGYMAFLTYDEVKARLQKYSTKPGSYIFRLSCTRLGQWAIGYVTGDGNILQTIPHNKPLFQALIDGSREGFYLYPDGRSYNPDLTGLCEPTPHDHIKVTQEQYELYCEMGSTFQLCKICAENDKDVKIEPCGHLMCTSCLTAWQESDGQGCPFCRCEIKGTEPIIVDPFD

The test system of experiment [4] is T-cell. In words: IL-2 secretion from T-cells co-stimulated with anti-CD3 and anti-CD28 antibody (Biological Example 2). The experiment is classed as cell-based, human. Conditions: Homo sapiens, T-cell, fold change over baseline, primary human total T-cells, read-out: IL-2 secretion Anti-CD3/Anti-CD28 stimulation; for fold induction at 0.3 µM: 0.3 μM Cbl-b inhibitor; for fold induction at 1 µM: 1 μM Cbl-b inhibitor; for fold induction at 4 µM: 4 μM Cbl-b inhibitor. An outline of the steps:
(§1)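 No assay protocol given; T-cells stimulated with anti-CD3 alone or anti-CD3 plus anti-CD28, with or without Cbl-b inhibitor. Activation read as IL-2 secretion or CD25 surface staining, expressed as fold over baseline from uninhibited cells […].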

Experiment [5] has as its system T-cell. In words: CD25 cell surface staining on T-cells co-stimulated with anti-CD3 and anti-CD28 antibody (Biological Example 2). The experiment is classed as cell-based, human. To be noted: Homo sapiens, T-cell, fold change over baseline, primary human total T-cells, read-out: CD25 staining Anti-CD3/Anti-CD28 stimulation; for fold induction at 0.3 µM: 0.3 μM Cbl-b inhibitor; for fold induction at 1 µM: 1 μM Cbl-b inhibitor; for fold induction at 4 µM: 4 μM Cbl-b inhibitor. The essentials:
as §1

pIC50, pKd: −log10 of the molar value. Structures can show the parent of a compound that is named as a salt. Where only a bound is given, the exact number is not on record here.

T1 sequence (Q13191 36-427): as above

As to `Cn1cnnc1CC1(c2cccc(N3Cc4c(cccc4C(F)(F)F)C3=O)c2)COC1` [Compound 301, 2-[3-[3-[(4-methyl-1,2,4-triazol-3-yl)methyl]oxetan-3-yl]phenyl]-4-(trifluoromethyl)isoindolin-1-one], the negative logarithm of the IC50 (pIC50) is greater than 7.00 in experiment [1] and no less than 7.00 in experiment [2]. Also, the pKd in experiment [3] is 6.00 to 6.52. Moreover, the fold induction at 0.3 µM in experiment [4] was 1.01 to 2.5; in experiment [5], 1.01 to 1.3. Also, the fold induction at 1 µM in experiment [4] was in the range of 2.51 to 5; in experiment [5], 1.01 to 1.3. For the same compound, the fold induction at 4 µM in experiment [4] is greater than 7.5; in experiment [5] it was 1.31 to 1.5.

Consider `C[C@H](Sc1nncn1C)c1cccc(NC(=O)c2cc3cc(OCC(=O)NCCN)ccc3cn2)c1` [Compound 311, 6-[2-(2-aminoethylamino)-2-oxo-ethoxy]-N-[3-[(1S)-1-[(4-methyl-1,2,4-triazol-3-yl)sulfanyl]ethyl]phenyl]isoquinoline-3-carboxamide hydrochloride], for which the negative-log IC50 (pIC50) in experiment [1] was 6.52 to 7.00; in experiment [2] it was no less than 6.52. Also, in experiment [3], the pKd is 6.52 to 7.00. The fold induction at 0.3 µM in experiment [4] and in experiment [5] was less than 1 throughout. In addition, the fold induction at 1 µM in experiment [4] and in experiment [5] was less than 1 in each case. Moreover, the fold induction at 4 µM in experiment [4] lay within 1.01 to 2.5; in experiment [5], 1.01 to 1.3.

As to `Cc1cnnn1C[C@@H](C)c1cccc(NC(=O)c2cccc(C(F)(F)F)n2)c1` [Compound 312a, (S)-N-(3-(1-(5-methyl-1H-1,2,3-triazol-1-yl)propan-2-yl)phenyl)-6-(trifluoromethyl)picolinamide], the pIC50 in experiment [1] was 6.52 to 7.00. Moreover, the pIC50 in experiment [2] is no less than 6.52. Also, the negative logarithm of the Kd (pKd) in experiment [3] is 6.00 to 6.52. Moreover, in experiment [4], the fold induction at 0.3 µM lay in the range of 1.01 to 2.5, the fold induction at 1 µM was in the range of 1.01 to 2.5 and the fold induction at 4 µM was in the range of 2.51 to 5. Moreover, in experiment [5], the fold induction at 0.3 µM was less than 1, the fold induction at 1 µM is 1.01 to 1.3 and the fold induction at 4 µM was 1.01 to 1.3.

As for `C[C@H](Cc1nncn1C)c1cccc(NC(=O)c2n[nH]c3c2CCC3)c1` [Compound 313, (R)-N-(3-(1-(4-Methyl-4H-1,2,4-triazol-3-yl)propan-2-yl)phenyl)-1,4,5,6-tetrahydrocyclopenta[c]pyrazole-3-carboxamide], the pIC50 in experiment [1] is 6.52 to 7.00. Also, the pIC50 in experiment [2] is no less than 6.52. In experiment [3], this compound showed a pKd of 6.00 to 6.52. In addition, in experiment [4], the fold induction at 0.3 µM was 1.01 to 2.5, the fold induction at 1 µM was in the range of 1.01 to 2.5 and the fold induction at 4 µM was 2.51 to 5. In experiment [5], the fold induction at 0.3 µM fell in the range of 1.01 to 1.3, the fold induction at 1 µM fell in the range of 1.01 to 1.3 and the fold induction at 4 µM was 1.01 to 1.3.

As for `C[C@H](Cc1nncn1C)c1cccc(NC(=O)c2nc3c(C4CC4)cccc3[nH]2)c1` [Compound 319, 4-cyclopropyl-N-[3-[(1R)-1-methyl-2-(4-methyl-1,2,4-triazol-3-yl)ethyl]phenyl]-1H-benzimidazole-2-carboxamide], the pIC50 in experiment [1] was 6.52 to 7.00. Also, the pIC50 in experiment [2] is no less than 6.52. The same compound showed a negative logarithm of the Kd (pKd) in experiment [3] of 6.52 to 7.00. In experiment [4], the fold induction at 0.3 µM was 1.01 to 2.5, the fold induction at 1 µM lay in the range of 1.01 to 2.5 and the fold induction at 4 µM fell in the range of 2.51 to 5. Further, in experiment [5], the fold induction at 0.3 µM lay within 1.01 to 1.3, the fold induction at 1 µM lay in the range of 1.01 to 1.3 and the fold induction at 4 µM is 1.01 to 1.3.

With `C[C@H](Cc1nncn1C)c1cccc(NC(=O)c2cc(C(C)(C)O)cc(C(F)(F)F)n2)c1` [Compound 320, 4-(2-hydroxypropan-2-yl)-N-[3-[(2R)-1-(4-methyl-4H-1,2,4-triazol-3-yl)propan-2-yl]phenyl]-6-(trifluoromethyl)pyridine-2-carboxamide], in experiment [1], the pIC50 was 6.52 to 7.00. Moreover, the pIC50 in experiment [2] was no less than 6.52. For the same compound, in experiment [3], the negative logarithm of the Kd (pKd) is 6.52 to 7.00. In experiment [4], the fold induction at 0.3 µM is 1.01 to 2.5, the fold induction at 1 µM lay within 2.51 to 5 and the fold induction at 4 µM lay within 5 to 7.5. For the same compound, in experiment [5], the fold induction at 0.3 µM was in the range of 1.01 to 1.3, the fold induction at 1 µM was 1.01 to 1.3 and the fold induction at 4 µM is 1.01 to 1.3.
